Data from ChEMBL document CHEMBL1122367, “Synthesis and antihypertensive activity of a series of spiro[1,3,4,6,7,11b-hexahydro-2H-benzo[a]quinolizine-2,5'-oxazolidin-2'-one]s” (1983).

What was measured:
Rattus norvegicus [1] = test: Percentage fall in systolic blood pressure in spontaneously hypertensive rats 3h after 50 mg/kg p.o. administration; Not significant.; format: functional, organism-based; design: dose 50 mg/kg; settings: Artery, at 50 mg/kg
Rattus norvegicus [2] = test: Antihypertensive activity as percentage fall in systolic blood pressure in spontaneously hypertensive rats 4 hr after 50 mg/kg po administration; NS means nonsignificant difference between treated and control group; format: functional, organism-based; design: dose 50 mg/kg; settings: Artery, at 50 mg/kg
Rattus norvegicus [3] = test: Antihypertensive activity as percentage fall in systolic blood pressure in spontaneously hypertensive rats 1 hr after 50 mg/kg po administration; format: functional, Artery
Rattus norvegicus [4] = test: Percentage fall in systolic blood pressure in spontaneously hypertensive rats 2 hr after 50 mg/kg p.o. administration; Not significant.; format: functional, organism-based; design: dose 50 mg/kg; settings: Artery, at 50 mg/kg
Rattus norvegicus [5] = test: Percentage fall in systolic blood pressure in spontaneously hypertensive rats 1 hr after 50 mg/kg p.o. administration; Not significant.; format: functional, organism-based; design: dose 50 mg/kg; settings: Artery, at 50 mg/kg
Rattus norvegicus [6] = test: Antihypertensive activity as percentage fall in systolic blood pressure in spontaneously hypertensive rats 3h after 50 mg/kg po administration; format: functional, Artery
Rattus norvegicus [7] = test: Percentage fall in systolic blood pressure in spontaneously hypertensive rats 2 hr after 50 mg/kg p.o. administration.; format: functional, Artery; settings: route oral
Rattus norvegicus [8] = test: Antihypertensive activity as percentage fall in systolic blood pressure in spontaneously hypertensive rats 4 hr after 50 mg/kg po administration; format: functional, Artery
Rattus norvegicus [9] = test: Antihypertensive activity as percentage fall in systolic blood pressure in spontaneously hypertensive rats 4 hr after 25 mg/kg po administration; format: functional, Artery
Rattus norvegicus [10] = test: Antihypertensive activity as percentage fall in systolic blood pressure in spontaneously hypertensive rats 1 hr after 25 mg/kg po administration; format: functional, Artery
Rattus norvegicus [11] = test: Antihypertensive activity as percentage fall in systolic blood pressure in spontaneously hypertensive rats 2 hr after 25 mg/kg po administration;NS means nonsignificant difference between treated and control group; format: functional, organism-based; design: dose 25 mg/kg; settings: Artery, at 25 mg/kg
Rattus norvegicus [12] = test: Antihypertensive activity as percentage fall in systolic blood pressure in spontaneously hypertensive rats 3h after 25 mg/kg po administration;NS means nonsignificant difference between treated and control group; format: functional, organism-based; design: dose 25 mg/kg; settings: Artery, at 25 mg/kg
Rattus norvegicus [13] = test: Antihypertensive activity as percentage fall in systolic blood pressure in spontaneously hypertensive rats 4 hr after 25 mg/kg po administration;NS means nonsignificant difference between treated and control group; format: functional, organism-based; design: dose 25 mg/kg; settings: Artery, at 25 mg/kg
Rattus norvegicus [14] = test: Antihypertensive activity as percentage fall in systolic blood pressure in spontaneously hypertensive rats 2 hr after 25 mg/kg po administration; format: functional, Artery

Structure (SMILES)	Fall (Rattus norvegicus [1])	Fall (Rattus norvegicus [2])	Fall (Rattus norvegicus [3])	Fall (Rattus norvegicus [4])	Fall (Rattus norvegicus [5])	Fall (Rattus norvegicus [6])	Fall (Rattus norvegicus [7])	Fall (Rattus norvegicus [8])	also measured
C[C@@H]1CN2CC[C@@]3(CNC(=O)O3)C[C@H]2c2ccccc21	Not significant	Not significant	16%	Not significant	–	–	–	–	–
CC1Cc2ccccc2[C@@H]2C[C@@]3(CCN12)CNC(=O)O3 (stereo partly drawn)	Not significant	Not significant	–	Not significant	Not significant	–	–	–	–
CCOc1cc2c(cc1OC)[C@@H]1C[C@]3(CNC(=O)O3)[C@@H](CC)CN1CC2	–	Not significant	39%	–	–	17%	32%	–	–
CN1C[C@]2(CCN3CCc4ccccc4[C@@H]3C2)OC1=O	–	Not significant	–	–	Not significant	-12%	-10%	–	–
CC[C@@H]1NC(=O)O[C@]12CCN1CCc3cc(OC)c(OC)cc3[C@@H]1C2	–	–	45%	–	–	30%	37%	27%	–
O=C1NC[C@@]2(CCN3CCc4ccccc4[C@@H]3C2)O1	–	–	22%	–	–	14%	26%	12%	Fall (Rattus norvegicus [9]): 25%; Fall (Rattus norvegicus [10]): 20%; Fall (Rattus norvegicus [11]): Not significant; Fall (Rattus norvegicus [12]): Not significant
COc1cc2c(cc1OC)[C@@H]1C[C@@]3(CCN1CC2)CN(C)C(=O)O3	Not significant	–	28%	–	–	–	14%	21%	–
CCCCOc1cc2c(cc1OC)CCN1CC[C@@]3(CNC(=O)O3)C[C@@H]21	Not significant	Not significant	15%	Not significant	–	–	–	–	–
COc1cc2c(cc1OC)[C@@H]1C[C@]3(CCN1CC2)CN(C(C)(C)C)C(=O)O3	Not significant	Not significant	39%	–	–	–	20%	–	–
CC[C@H]1CN2CCc3cc(OC)c(OC)cc3[C@@H]2C[C@@]12OC(=O)N[C@H]2CC	–	–	43%	–	–	30%	48%	24%	–
COc1cc2c(cc1OC)[C@@H]1C[C@]3(CCN1CC2)CNC(=O)O3	Not significant	Not significant	–	Not significant	Not significant	–	–	–	–
CCC[C@H]1CN2CCc3cc(OC)c(OC)cc3[C@@H]2C[C@]12CNC(=O)O2	–	–	41%	–	–	17%	27%	16%	–
CC[C@H]1CN2CCc3cc(OC)c(OC)cc3[C@@H]2C[C@]12CNC(=O)O2 (racemic)	–	–	–	–	–	–	–	–	Fall (Rattus norvegicus [6]; 50 mg/kg): 29%; Fall (Rattus norvegicus [8]; 50 mg/kg): 33%; Fall (Rattus norvegicus [3]; 50 mg/kg): 45%; Fall (Rattus norvegicus [7]; 50 mg/kg): 37%
C[C@H]1CN2CC[C@@]3(CNC(=O)O3)C[C@H]2c2ccccc21	Not significant	Not significant	–	Not significant	Not significant	–	–	–	–
COc1cc2c(cc1OC)[C@@H]1C[C@]3(CNC(=O)O3)[C@@H](Cc3ccccc3)CN1CC2	Not significant	–	27%	Not significant	–	–	–	19%	–
O=C1NC[C@@]2(CCN3CCc4cc5c(cc4[C@@H]3C2)OCO5)O1	–	Not significant	28%	Not significant	–	14%	–	–	–
COc1cc2c(cc1OC)[C@@H]1C[C@]3(CCN1CC2)CN(C(C)C)C(=O)O3	Not significant	Not significant	29%	–	–	–	16%	–	–
O=C1NC[C@]2(CCN3CCc4ccccc4[C@@H]3C2)O1	Not significant	Not significant	–	Not significant	Not significant	–	–	–	–

Structure (SMILES)	Fall (Rattus norvegicus [1])	Fall (Rattus norvegicus [2])	Fall (Rattus norvegicus [3])	Fall (Rattus norvegicus [4])	Fall (Rattus norvegicus [5])	Fall (Rattus norvegicus [6])	Fall (Rattus norvegicus [7])	Fall (Rattus norvegicus [8])	also measured
CC[C@H]1CN2CCc3cc4c(cc3[C@@H]2C[C@]12CNC(=O)O2)OCO4	Not significant	Not significant	–	Not significant	Not significant	–	–	–	–
CCCN1C[C@]2(CCN3CCc4cc(OC)c(OC)cc4[C@@H]3C2)OC1=O	Not significant	Not significant	–	Not significant	Not significant	–	–	–	–
COc1cc2c(cc1OC)[C@@H]1C[C@]3(CCN1CC2)CN(C)C(=O)O3	Not significant	–	27%	Not significant	–	–	–	18%	–
CN1C[C@@]2(CCN3CCc4ccccc4[C@@H]3C2)OC1=O	Not significant	Not significant	–	Not significant	Not significant	–	–	–	–
CC[C@H]1CN2CCc3cc(OC)c(OC)cc3[C@@H]2C[C@]12CNC(=O)O2 [listing 1 of 2 here]	Not significant	Not significant	–	Not significant	Not significant	–	–	–	Fall (Rattus norvegicus [13]): Not significant; Fall (Rattus norvegicus [12]): Not significant
CCCOc1cc2c(cc1OC)CCN1CC[C@@]3(CNC(=O)O3)C[C@@H]21	Not significant	Not significant	–	Not significant	Not significant	–	–	–	–
CC[C@H]1CN2CCc3ccccc3[C@@H]2C[C@]12CNC(=O)O2	Not significant	Not significant	25%	Not significant	–	–	–	–	–
CCCCN1C[C@]2(CCN3CCc4cc(OC)c(OC)cc4[C@@H]3C2)OC1=O	Not significant	Not significant	–	Not significant	Not significant	–	–	–	–
CCN1C[C@@]2(CCN3CCc4cc(OC)c(OC)cc4[C@@H]3C2)OC1=O	Not significant	Not significant	31%	Not significant	–	–	–	–	–
CCOc1cc2c(cc1OC)CCN1C[C@H](CC)[C@@]3(CNC(=O)O3)C[C@@H]21	–	Not significant	25%	–	–	17%	22%	–	–
CCCC[C@H]1CN2CCc3cc(OC)c(OC)cc3[C@@H]2C[C@]12CNC(=O)O2	–	–	34%	–	–	13%	21%	13%	–
COc1cc2c(cc1OC)[C@@H]1C[C@]3(CNC(=O)O3)[C@@H](c3ccccc3)CN1CC2	–	Not significant	–	Not significant	Not significant	-9%	–	–	–
CC[C@H]1NC(=O)O[C@]12CCN1CCc3cc(OC)c(OC)cc3[C@@H]1C2	–	–	41%	–	–	25%	38%	25%	–
COc1cc2c(cc1OC)[C@@H]1C[C@@]3(CCN1CC2)CNC(=O)O3	Not significant	Not significant	20%	Not significant	Not significant	12%	13%	15%	Fall (Rattus norvegicus [10]): 22%; Fall (Rattus norvegicus [14]): 19%; Fall (Rattus norvegicus [12]): Not significant
O=C1NC[C@@]2(CCN3C[C@@H](c4ccccc4)c4ccccc4[C@@H]3C2)O1	Not significant	Not significant	–	Not significant	Not significant	–	–	–	–
CC[C@H]1CN2CCc3cc(OC)c(OC)cc3[C@@H]2C[C@]12CNC(=O)O2 [listing 2 of 2 here]	–	–	–	–	–	–	–	–	Fall (Rattus norvegicus [6]; 50 mg/kg): 33%; Fall (Rattus norvegicus [8]; 50 mg/kg): 28%; Fall (Rattus norvegicus [10]): 44%; Fall (Rattus norvegicus [3]; 50 mg/kg): 52%; Fall (Rattus norvegicus [14]): 30%; Fall (Rattus norvegicus [7]; 50 mg/kg): 40%
COc1cc2c(cc1OC(C)C)[C@@H]1C[C@@]3(CCN1CC2)CNC(=O)O3	–	Not significant	19%	Not significant	–	8%	–	–	–
COc1cc2c(cc1OC)[C@@H]1C[C@]3(CNC(=O)O3)[C@@H](C)CN1CC2	–	–	47%	–	–	37%	41%	25%	Fall (Rattus norvegicus [9]): 15%; Fall (Rattus norvegicus [10]): 27%; Fall (Rattus norvegicus [14]): 19%; Fall (Rattus norvegicus [12]): Not significant
